# Data taken from patent publication US20210214683A1, “METHODS FOR ISOLATING TUMOR-SPECIFIC IMMUNE CELLS FROM A SUBJECT FOR ADOPTIVE CELL THERAPY AND CANCER VACCINES” (CRITITECH, INC., priority 2018, published 2021).
# Values joined by “and” are separate entries in the source; they are usually repeats but may differ in a detail not shown here. Equal values may be shown once. Marks after values point to notes of the source that are not given here.
# What was measured:
# [1] = tested on: human renal cell adenocarcinoma (786-O cell line); assay: Rat 786-O xenograft: H&E and immunohistochemical evaluation (viable carcinoma size, necrosis, CD11b/CD68 infiltrate, TLS); format: in vivo, Sprague-Dawley Rag2; Il2rg null (SRG) rat
# Source text: Tissue Collection: Primary Tumor (Inoculation site)—A final tumor measurement was taken prior to excision. Tumors were weighed after excision. Approximately ½ of each tumor (based on visual assessment) was flash frozen in 2-methylbutane on dry ice, the tumor piece was weighed when possible before it is flash frozen. The remaining was fixed in 10% neutral buffered formalin. Tumors were also collected from animals not reaching enrollment volume. Secondary Tumors—Any organ with visible tumors were collected and fixed in 10% neutral buffered formalin. Formalin fixed tissues were stored at room temperature. Frozen tissues were stored at −80° C. All tissue was stored for up to 3 months. Pictures of all tumors; primary and secondary if present, were taken.
# Microscopic Examination: Tissues fixed with 10% NBF were embedded in paraffin. Each tumor was cut into 2-3 pieces and embedded and sectioned together.
# [2] = tested on: UM-UC-3 bladder cancer cell line; assay: UM-UC-3 mouse xenograft study: immunohistochemistry (F4/80, CD68 macrophage infiltrate, CD45R); format: in vivo, Hsd:Athymic Nude-Foxn1nu nude mice; conditions: IV Docetaxel 3 cycles
# Renca tumor cells [3] = assay: Renca syngeneic xenograft study: untreated secondary tumor growth (groups 8-10); format: in vivo, female BALB/c mice; conditions: IV docetaxel; second Renca injection day 15
# Description: (§1) The schedule in Table 39 was followed.
# (§2) Cell Injection Volume: 0.1 mL/mouse. Age at Start Date: 8 to 12 weeks. […] Body Weight: 5/2 then tiwk to end. Caliper Measurement: tiwk to end. Double caliper measurements were performed for Groups 8-10. […] The group was not euthanized and recovery was allowed.
# (§3) Endpoints: Groups 1-7: Endpoint TGI. Animals were monitored as a group.
# [4] = UM-UC-3 mouse xenograft study: body weight and peripheral neuropathy; format: in vivo, Hsd:Athymic Nude-Foxn1nu nude mice; conditions: Docetaxel IV 3 cycles
# Description: (§4) Tumor volume was determined with calipers. […] Animals were weighed 2×/week.
# Renca tumor cells [5] = assay: Renca syngeneic xenograft study: primary tumor volume (groups 1-7); format: in vivo, female BALB/c mice; conditions: IV docetaxel Day 1 (10 mg/kg) and Day 11 (5 mg/kg)
# Description: as §1
# All treatments were initiated on the same day.
# as §2, §3
# [6] = tested on: immune cells in the blood; assay: Renca syngeneic xenograft study: flow cytometry of blood (CD45+, CD4+, CD8+, Treg, MDSC, M1, M2); format: in vivo, female BALB/c mice; conditions: IV Docetaxel, individual animals
# Description: Blood Collection: Collected full volume blood by terminal cardiac puncture under isoflurane anesthesia. Processed blood for: Whole Blood: anti-coagulant—K2EDTA, preservation—Cooled 4° C., shipping condition—4° C. (wet ice). Retained at CRL-NC for flow cytometry. See Flow panel in Table 40 below.
# (§5) Peripheral blood and tumor tissue were collected for analysis via flow cytometry. Cell types analyzed included T-Cells: CD4+, CD8+ (Tumor Suppression); Treg (Tumor Promotion); M1 Macrophages (Tumor Suppression); M2 Macrophages (Tumor Promotion); and M2 Macrophages (Tumor Promotion).
# [7] = tested on: UM-UC-3 bladder cancer cell line; assay: UM-UC-3 mouse xenograft study: H&E histopathology (viable carcinoma size on slide, necrosis, TLS); format: in vivo, Hsd:Athymic Nude-Foxn1nu nude mice
# [8] = tested on: immune cells in tumor tissue; assay: Renca syngeneic xenograft study: flow cytometry of tumor tissue; format: in vivo, female BALB/c mice; conditions: IV docetaxel, individual animal
# Description: Organ Collection: Tumor (divide into 2 parts). […] Sent to laboratory for IHC staining. Part 2: preservation—processed to single cell suspension, shipping condition—4° C. (wet ice). Retained at CRL-NC for flow cytometry. See Flow panel in Table 40 below. Tumor preservation for early euthanasia in Groups 2-10: Excised tumor and surrounding area from the mammary fat pad area (cranial) to just past tumor (caudal). The region included the inguinal lymph node. Sectioned this sample every 4 mm from the cranial to caudal end and enclosed in separate cassettes labeled in order.
# as §5
# [9] = tested on: UM-UC-3 bladder cancer cell line; assay: Human bladder cancer (UM-UC-3) mouse xenograft study: tumor volume; format: in vivo, Hsd:Athymic Nude-Foxn1nu nude mice; conditions: Docetaxel IV 30 mg/kg, 3 cycles
# Description: as §4
# At day 18 after tumor implant, when average tumor size was between 50-325 mm^3, animals were sorted into five groups with equal average tumor sizes and were treated as shown in Table 25 below.
# The second treatments (2nd cycle) occurred 7 days following first treatment (1st cycle) and third treatments (3rd cycle) occurred 14 days following the first treatment. The docetaxel solution IV was administered via the tail vein.
# Vehicle (Control): Diluted 1 ml of the 1% Polysorbate 80/8% Ethanol in normal saline (0.9% Sodium Chloride for Injection) reconstitution solution with 1.5 mL of normal saline (0.9% Sodium Chloride for Injection, USP). […] Vigorously hand shook the vial with inversions for 1 minute. […] Allowed the suspension to sit undisturbed for at least 5 minutes to reduce entrapped air and foam. […] Vortexed to mix.
# [10] = IV Docetaxel 3 cycles, 2 animals
smiles,measurement,setting,value
CC(=O)O[C@@]12CO[C@@H]1C[C@H](O)[C@@]1(C)C(=O)[C@H](O)C3=C(C)[C@@H](OC(=O)[C@H](O)[C@@H](NC(=O)OC(C)(C)C)c4ccccc4)C[C@@](O)([C@@H](OC(=O)c4ccccc4)[C@H]21)C3(C)C [Doce],Number of animals with <5% of tissue showing necrosis,"[1]; IV Doce, 2 animals",2
same,Number of animals with Mild lymphohistiocytic infiltrate density,"[1]; IV Doce, 2 animals, H/E and CD11b staining, semi quantitative",2
"CC(=O)O[C@@]12CO[C@@H]1C[C@H](O)[C@@]1(C)C(=O)[C@H](O)C3=C(C)[C@@H](OC(=O)[C@H](O)[C@@H](NC(=O)OC(C)(C)C)c4ccccc4)C[C@@](O)([C@@H](OC(=O)c4ccccc4)[C@H]21)C3(C)C [Docetaxel, docetaxel]",F4/80 immunohistochemistry observation (FIG. 87),[2],Very little tumor cell destruction and few scattered mononuclear immune cells among vast number of viable tumor cells
same,Macrophage infiltrate density: Mild (animals),"[2]; 2 animals, H&E and CD68",2
same,growth rate of the secondary Renca tumors,Renca tumor cells [3],did not reduce the growth rate of the secondary Renca tumors
same,"initial animal weight loss compared with nDoce IT 1, 2, 3 cycles",[4],generally greater
same,peripheral neuropathy compared with nDoce IT 3 cycles,[4],greater signs of peripheral neuropathy
same,tumor volume compared to vehicle,Renca tumor cells [5],No difference in tumor volume
same,CD45 (% of Live),[6],97 % of Live
same,CD45 Count,[6],1200000
same,MDSC Count,[6],1000000
same,Treg Count,[6],1300 and 870
same,General histological observations (H&E),[7]; Docetaxel Solution IV 3 cycles,many viable appearing tumor masses with some macrophage and occasional lymphocytic response along with some tumor necrosis
same,Maximum size of viable invasive carcinoma on the slide >10 mm (animals),[7]; [10],2*
same,Number of animals with 11-50% of tumor showing necrosis,[7]; [10],1
same,Number of animals with 50-90% of tumor showing necrosis,[7]; [10],1
same,Maximum tumor size on slide (mm),"[7]; IV Docetaxel 3 cycles, individual animals B1, B3",15 mm and 11 mm
same,"maximum dimension of tumor mass on the slide, individual cases","[7]; Intravenous Docetaxel 3 cycles, 2 cases",11 mm and 15 mm
same,"geographic tumor cell necrosis, share of the tumor area, individual cases","[7]; Intravenous Docetaxel 3 cycles, cases B1, B3",11-50% and 50-90%
same,CD8 (% of CD45),[8],0.75% and 0.5% and 0.28% and 0.31% (2×) and 0.061% and 0.32% and 0.45% and 0.81% and 0.33%
same,CD8 Count,[8],33 and 40 and 26 and 9 and 36 and 270
same,CD45 (% of Live),[8],73%
same,Conv CD4 (% of CD45),[8],0.44% and 0.16% and 0.58% and 0.62% and 0.59%
same,Conv CD4 Count,[8],54 and 93 and 140 and 23 and 50 and 670
same,M1 Mac Count,[8],460 and 700
same,M2 Mac (% of CD45),[8],28%
same,MBSC (% of CD45),[8],25.1% and 32.8% and 42.5% and 44% and 83.3% and 20% and 70.4% and 37.3% and 10.4%
same,Treg (% of CD45),[8],0.55% and 0.32% and 0.62% and 0.16% and 0.54% and 0.21% and 0.42% and 0.6%
same,Treg Count,[8],69 and 44 and 30 and 23 and 17 and 520
same,histology compared with the vehicle control (FIG. 93),"[1]; Docetaxel (IV) 3 cycles, female rat",no difference
same,Number of animals with residual viable carcinoma >10 mm,"[1]; IV docetaxel, 2 animals, maximum dimension on slide",2
same,"residual viable carcinoma nodules, size on the slide",[1]; both IV docetaxel animals (3 cycles),greater than 10 mm
same,efficacy in relation to initial tumor size,[9],"somewhat effective at treating small tumors, but not very effective in treating large tumors"
same,"tumor volumes over the study (61 days), after an initial decrease",[9],subsequently increased
